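Five concentrations, 48 hours, 96-well plates. Here, GI50 denotes the concentration required for 50% inhibition of growth.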 The source made the active and inactive calls. Cut-off read from the data, not from the text of the source: active = GI50 up to about 1.1 µM and inactive = higher.
Legend:
Assay in all cases: NCI-60 cell line screen, 48 h
A549 = system: A549
CCRF-CEM = system: CCRF-CEM
COLO 205 = system: COLO 205
EKVX = system: EKVX
HOP-92 = system: HOP-92
IGROV-1 = system: IGROV-1
K562 = system: K562
MOLT-4 = system: MOLT-4
NCI-H460 = system: NCI-H460
SF-268 = system: SF-268
SK-MEL-28 = system: SK-MEL-28
SN12C = system: SN12C
SNB-19 = system: SNB-19
SW-620 = system: SW-620
LOX IMVI = system: LOX IMVI
OVCAR-4 = system: OVCAR-4
SF-295 = system: SF-295
MCF7 = system: MCF7
PC-3 = system: PC-3

| Structure (SMILES) | GI50 (A549) | GI50 (CCRF-CEM) | GI50 (COLO 205) | GI50 (EKVX) | GI50 (HOP-92) | GI50 (IGROV-1) | GI50 (K562) | GI50 (MOLT-4) | GI50 (NCI-H460) | GI50 (SF-268) | GI50 (SK-MEL-28) | GI50 (SN12C) | GI50 (SNB-19) | GI50 (SW-620) | GI50 (LOX IMVI) | GI50 (OVCAR-4) | GI50 (SF-295) | GI50 (MCF7) | GI50 (PC-3) |
| --- | --- | --- | --- | --- | --- | --- | --- | --- | --- | --- | --- | --- | --- | --- | --- | --- | --- | --- | --- |
| O=C(N/N=C1/C(=O)N(c2ccc(Cl)cc2Cl)C(=O)C(=O)C1c1nc2ccccc2o1)c1ccccc1O (stereo not given) | 33 µM (inactive) | 47.6 µM (inactive) | 52.7 µM (inactive) | 45.7 µM (inactive) | 30.5 µM (inactive) | 39.9 µM (inactive) | 47 µM (inactive) | 34.7 µM (inactive) | 44.8 µM (inactive) | 41.2 µM (inactive) | 29.6 µM (inactive) | 33.8 µM (inactive) | 49.7 µM (inactive) | 47.9 µM (inactive) | – | – | – | – | – |
| COC(=O)[C@H]1CC(=O)C=C2CCCC21 (stereo not given in full) | > 100 µM (inactive) | > 100 µM (inactive) | > 100 µM (inactive) | > 100 µM (inactive) | > 100 µM (inactive) | > 100 µM (inactive) | > 100 µM (inactive) | > 100 µM (inactive) | > 100 µM (inactive) | > 100 µM (inactive) | > 100 µM (inactive) | > 100 µM (inactive) | > 100 µM (inactive) | > 100 µM (inactive) | > 100 µM (inactive) | > 100 µM (inactive) | > 100 µM (inactive) | – | – |
| CCOP(=O)(OCC)C1CC(O)CN1OC(=O)C(C)(C)C (stereo not given) | > 100 µM (inactive) | > 100 µM (inactive) | > 100 µM (inactive) | > 100 µM (inactive) | – | > 100 µM (inactive) | > 100 µM (inactive) | > 100 µM (inactive) | – | > 100 µM (inactive) | > 100 µM (inactive) | > 100 µM (inactive) | > 100 µM (inactive) | > 100 µM (inactive) | > 100 µM (inactive) | > 100 µM (inactive) | > 100 µM (inactive) | > 100 µM (inactive) | > 100 µM (inactive) |
| O=C(N/C(=C\c1ccc(Br)cc1)c1nc2ccccc2s1)c1ccccc1 | 61.4 µM (inactive) | 21.5 µM (inactive) | > 100 µM (inactive) | 37.5 µM (inactive) | 38.2 µM (inactive) | 75.2 µM (inactive) | 51.4 µM (inactive) | 29.9 µM (inactive) | 85.1 µM (inactive) | 36.2 µM (inactive) | > 100 µM (inactive) | > 100 µM (inactive) | 47 µM (inactive) | > 100 µM (inactive) | 65.2 µM (inactive) | 30.8 µM (inactive) | – | – | – |
| O=c1ccc2ccc(O)c3c4c(O)ccc5ccc(=O)c(c1c23)c54 | 2.95 µM (inactive) | 0.71 µM (active) | 1.91 µM (inactive) | 3.38 µM (inactive) | – | 1.82 µM (inactive) | 2.07 µM (inactive) | 2.11 µM (inactive) | 3.56 µM (inactive) | – | 1.14 µM (inactive) | 2.08 µM (inactive) | 2.18 µM (inactive) | 2.07 µM (inactive) | 1.18 µM (inactive) | – | 2.69 µM (inactive) | – | – |
| COc1ccccc1-c1cc(=O)c2ccccc2[nH]1 | 54.3 µM (inactive) | 66.7 µM (inactive) | > 100 µM (inactive) | > 100 µM (inactive) | – | 99.8 µM (inactive) | 36.1 µM (inactive) | 52 µM (inactive) | > 100 µM (inactive) | > 100 µM (inactive) | > 100 µM (inactive) | > 100 µM (inactive) | > 100 µM (inactive) | 40.4 µM (inactive) | > 100 µM (inactive) | – | 40 µM (inactive) | – | – |
| C=C1C(=O)OC2(C)C3CCC(C3)C12 (stereo not given) | > 100 µM (inactive) | 24.8 µM (inactive) | 23.1 µM (inactive) | 81.8 µM (inactive) | 29 µM (inactive) | > 100 µM (inactive) | 33.3 µM (inactive) | 34 µM (inactive) | 33 µM (inactive) | 69.2 µM (inactive) | > 100 µM (inactive) | 57.8 µM (inactive) | > 100 µM (inactive) | 47.2 µM (inactive) | 80.2 µM (inactive) | 54.5 µM (inactive) | > 100 µM (inactive) | – | – |
| COC(=O)C1(C)C=C(Nc2ccccc2)C(=O)N1c1ccccc1 (stereo not given) | > 100 µM (inactive) | > 100 µM (inactive) | – | > 100 µM (inactive) | 54.1 µM (inactive) | > 100 µM (inactive) | > 100 µM (inactive) | > 100 µM (inactive) | > 100 µM (inactive) | > 100 µM (inactive) | > 100 µM (inactive) | > 100 µM (inactive) | > 100 µM (inactive) | > 100 µM (inactive) | > 100 µM (inactive) | > 100 µM (inactive) | > 100 µM (inactive) | – | – |
| O=C(CSC(=S)N1CCOCC1)Nc1nc2c(s1)CCCC2 | > 100 µM (inactive) | 45.8 µM (inactive) | > 100 µM (inactive) | 99.5 µM (inactive) | 23.9 µM (inactive) | > 100 µM (inactive) | – | > 100 µM (inactive) | > 100 µM (inactive) | > 100 µM (inactive) | > 100 µM (inactive) | > 100 µM (inactive) | – | – | > 100 µM (inactive) | > 100 µM (inactive) | > 100 µM (inactive) | – | – |
| C=CCC1(C)CCCCC1(O)C[S+]([O-])c1ccccc1 (stereo not given) | > 100 µM (inactive) | > 100 µM (inactive) | > 100 µM (inactive) | > 100 µM (inactive) | > 100 µM (inactive) | > 100 µM (inactive) | – | > 100 µM (inactive) | > 100 µM (inactive) | > 100 µM (inactive) | > 100 µM (inactive) | > 100 µM (inactive) | > 100 µM (inactive) | > 100 µM (inactive) | > 100 µM (inactive) | > 100 µM (inactive) | > 100 µM (inactive) | – | – |
| C=C[C@@H](C)[C@]1(C(=O)OC)CCCC12OCCO2 | > 100 µM (inactive) | > 100 µM (inactive) | > 100 µM (inactive) | > 100 µM (inactive) | > 100 µM (inactive) | > 100 µM (inactive) | > 100 µM (inactive) | > 100 µM (inactive) | > 100 µM (inactive) | > 100 µM (inactive) | > 100 µM (inactive) | > 100 µM (inactive) | > 100 µM (inactive) | – | > 100 µM (inactive) | > 100 µM (inactive) | > 100 µM (inactive) | – | – |
| N#CCCN(CCC#N)c1ccc(/C=N\c2nc(-c3ccccc3)cs2)cc1 | > 100 µM (inactive) | – | > 100 µM (inactive) | > 100 µM (inactive) | 50.8 µM (inactive) | > 100 µM (inactive) | > 100 µM (inactive) | > 100 µM (inactive) | > 100 µM (inactive) | > 100 µM (inactive) | > 100 µM (inactive) | > 100 µM (inactive) | > 100 µM (inactive) | > 100 µM (inactive) | > 100 µM (inactive) | 63.4 µM (inactive) | 45.7 µM (inactive) | – | – |
| COc1cc(O)c(C(=O)CC(C)=O)c(OC)c1 | > 100 µM (inactive) | > 100 µM (inactive) | > 100 µM (inactive) | > 100 µM (inactive) | – | > 100 µM (inactive) | > 100 µM (inactive) | > 100 µM (inactive) | > 100 µM (inactive) | > 100 µM (inactive) | > 100 µM (inactive) | > 100 µM (inactive) | > 100 µM (inactive) | > 100 µM (inactive) | > 100 µM (inactive) | > 100 µM (inactive) | > 100 µM (inactive) | – | – |
| O=C1C[C@@H]2C(COC(=O)c3ccccc3)N(OCc3ccccc3)C[C@@H]2O1 (stereo not given in full) | > 100 µM (inactive) | > 100 µM (inactive) | > 100 µM (inactive) | > 100 µM (inactive) | – | > 100 µM (inactive) | > 100 µM (inactive) | > 100 µM (inactive) | > 100 µM (inactive) | > 100 µM (inactive) | > 100 µM (inactive) | > 100 µM (inactive) | > 100 µM (inactive) | > 100 µM (inactive) | > 100 µM (inactive) | > 100 µM (inactive) | – | – | – |
| O=S(=O)(O)SC/C=C\CSS(=O)(=O)O | > 100 µM (inactive) | – | > 100 µM (inactive) | > 100 µM (inactive) | > 100 µM (inactive) | > 100 µM (inactive) | > 100 µM (inactive) | 35.8 µM (inactive) | 42.2 µM (inactive) | > 100 µM (inactive) | > 100 µM (inactive) | > 100 µM (inactive) | > 100 µM (inactive) | > 100 µM (inactive) | 29.4 µM (inactive) | > 100 µM (inactive) | > 100 µM (inactive) | – | – |
| O=S(O)CCCSSCCCCSSCCCS(=O)O | > 100 µM (inactive) | > 100 µM (inactive) | > 100 µM (inactive) | 34.4 µM (inactive) | – | > 100 µM (inactive) | > 100 µM (inactive) | 26.7 µM (inactive) | > 100 µM (inactive) | > 100 µM (inactive) | > 100 µM (inactive) | > 100 µM (inactive) | > 100 µM (inactive) | > 100 µM (inactive) | > 100 µM (inactive) | > 100 µM (inactive) | > 100 µM (inactive) | – | – |
| O=[N+]([O-])c1cccc(Nc2nc(Cl)nc(Cl)n2)c1 | > 100 µM (inactive) | > 100 µM (inactive) | > 100 µM (inactive) | > 100 µM (inactive) | – | – | > 100 µM (inactive) | > 100 µM (inactive) | > 100 µM (inactive) | > 100 µM (inactive) | > 100 µM (inactive) | > 100 µM (inactive) | > 100 µM (inactive) | > 100 µM (inactive) | > 100 µM (inactive) | 34.4 µM (inactive) | > 100 µM (inactive) | – | – |
| Oc1ccc2c(c1)CC[N+]1=C2CCC2CCCC21 (stereo not given) [QUINDONIUM BROMIDE] | > 100 µM (inactive) | – | > 100 µM (inactive) | > 100 µM (inactive) | > 100 µM (inactive) | > 100 µM (inactive) | – | – | > 100 µM (inactive) | > 100 µM (inactive) | > 100 µM (inactive) | > 100 µM (inactive) | > 100 µM (inactive) | > 100 µM (inactive) | > 100 µM (inactive) | > 100 µM (inactive) | > 100 µM (inactive) | – | – |
